From publication PMC3360746, “CD36 Inhibitors Reduce Postprandial Hypertriglyceridemia and Protect against Diabetic Dyslipidemia and Atherosclerosis” (PLoS ONE, 2012)

Target: T1, CD36 (Homo sapiens, UniProt P16671)
T1 construct: full length human CD36 stably expressed in HEK 293 cells
Assay: inhibition of Cy3-ox-LDL binding to HEK-CD36 cells at […]°C; affinity cross-linking of ox-LDL to CD36
Type: cell-based

T1 sequence (P16671 2-472): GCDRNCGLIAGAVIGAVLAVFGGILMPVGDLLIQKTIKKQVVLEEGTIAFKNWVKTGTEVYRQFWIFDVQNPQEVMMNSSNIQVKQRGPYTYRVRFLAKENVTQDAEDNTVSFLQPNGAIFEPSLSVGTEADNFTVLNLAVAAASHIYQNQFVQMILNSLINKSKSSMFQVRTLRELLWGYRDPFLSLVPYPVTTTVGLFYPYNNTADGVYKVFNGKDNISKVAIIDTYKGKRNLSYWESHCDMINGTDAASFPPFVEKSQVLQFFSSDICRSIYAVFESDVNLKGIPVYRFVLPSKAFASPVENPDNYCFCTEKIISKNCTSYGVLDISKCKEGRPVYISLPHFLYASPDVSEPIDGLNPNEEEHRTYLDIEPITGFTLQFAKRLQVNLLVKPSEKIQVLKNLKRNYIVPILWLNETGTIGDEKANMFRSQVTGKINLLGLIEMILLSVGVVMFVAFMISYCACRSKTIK

IC50 [nM]	SMILES
1000 ± 100	COc1cc(O)c(/C=N/NC(=O)c2cc3ccccc3s2)c(OC)c1 [AP5055]
5000 ± 1000	COc1cc(O)c(/C=N/NC(=O)c2ccc3nccn3c2)c(OC)c1 [AP5258]
